Columns and labels:
[1] = test system: metal ions in retinal drusen; assay: Post mortem retina screening, ZP1 zinc labeling of Bruch membrane; details: 15 hours incubation; TPEN 100 μM, PB-1033 100 and 250 μM; 10 μM ZP1
Method: Post Mortem Screening The BAS assay is adopted for post mortem retina. Using a trephine, 6 mm diameter regions of peripheral retina from frozen donor eyes are dissected. Following defrosting, the neuronal retina and the RPE cells are removed by gentle agitation in PBS buffer. Following removal of the RPE cells, strips of the Bruch membrane are cut from the eye. 4 samples are prepared: 1) Control […] Samples are then washed 3 times and the labeling visualized using a fluorescence and confocal microscope. A repeat of this procedure is performed with the exception that samples are incubated for a period of 15 hours before washing to determine differential metal binding over this longer period. The test results are in the form of fluorescence imaging from a confocal microscope of the 4 samples tested in this Example after 15 hours of sample incubation. […] Fluorescence microscopic photographs (which are in colour) are available upon request from the […].

[2] = test system: M17 human neuroblastoma cells; assay: Cytotoxicity, M17 human neuroblastoma cells; format: cell-based
Method: Assay 3. MTS Assay for Cell Viability
Cell viability is determined using the MTS assay. Culture medium is replaced with fresh neurobasal medium plus B27 supplements minus antioxidants. 1/10th volume MTS solution (Cell Titre 96 Aqueous One, Promega Corporation) and incubated at 37° C., 2 hrs. 200 microliter aliquots are measured with a spectrophotometer at 560 nm.

[3] = target: T1, Abeta:Zn (25:50 μM) Synthetic Aggregations (Homo sapiens, UniProt P05067); assay: Disaggregation of Abeta:Zn synthetic aggregates (ThT fluorescence); format: biochemical
T1 construct: PB Compound Mediated Dissolution of Aggregated Abeta 1-42; purchased Keck Laboratory, Yale University School of Medicine
Summary of the method: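 Abeta1-42 (25 μM) with ZnCl2 (50 μM) and ThT (50 μM) in PBS pH 6.6 was preaggregated 24 h at 37 degrees with rotation. Aggregates were then exposed to compound (final 1-50 μM, DMSO) for 2 h at 37 degrees. ThT fluorescence was read at ex 450/em 480 nm.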

T1 sequence (P05067 672-713 limits assumed): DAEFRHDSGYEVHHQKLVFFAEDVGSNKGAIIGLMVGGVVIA

SMILES: CN(C)Cc1ccc2c(Cl)cc(Cl)c(O)c2n1.Cl [PB 1033]
- ZP1 (zinc sensor) labeling of post mortem Bruch membrane [1]: inhibited ZP1 labeling
- Cytotox (% viable) M17 cells at 1 μM ([2]; 1 μM test compound): 94%
- Cytotox (% viable) M17 cells at 10 μM ([2]; 10 μM test compound): 54.3%
- Disaggregation % Aggregate reduction at 5 μM ([3]; 5 μM test compound): 33.2%
- EC50 ([3]; Abeta:Zn 25:50 μM aggregates): 18.6 µM
